Reference: patent US20180244611A1, “Modulators of the Cystic Fibrosis Transmembrane Conductance Regulator Protein and Methods of Use” (AbbVie S.à.r.l., priority 2017, published 2018)

Legend:
[1] = target: T1, F508delCFTR (Homo sapiens, UniProt P13569, DEL508-508); assay: Cell Surface Expression-Horse Radish Peroxidase (CSE-HRP) assay, test compound without co-corrector; assay type: cell-based; settings: for Emax: maximum at any tested concentration, normalized to positive control, without co-corrector; for EC50: test compound without co-corrector;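 as to Emax: percent of on-plate 2 µM positive control corrector response over DMSO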
T1 construct: expressed in transfected cells; host or cells: CFBE41o- human lung-derived epithelial cells (CFBE41o-F508delCFTR-HRP), doxycycline-inducible
Procedure, shortened: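 CFBE41o- cells expressing F508delCFTR with HRP in the fourth exofacial loop, induced with 0.5 μg/mL doxycycline for 72 h at 37° C, then exposed to compound alone for 18-24 h at 33° C, 8-point 3-fold series from 20 μM. Surface HRP read by luminol luminescence, normalized to positive corrector control versus DMSO; EC50 from variable-slope sigmoidal fit of three replicate plates.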

[2] = target: T1, F508delCFTR; assay: Cell Surface Expression-Horse Radish Peroxidase (CSE-HRP) assay, test compound with co-corrector; assay type: cell-based; settings: with 2 μM co-corrector; for Maximum % activity (with co-corrector): maximum at any tested concentration, normalized to positive control;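 as to Maximum % activity (with co-corrector): percent of 2 µM positive control corrector over DMSO; co-corrector is that same compound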
Procedure, shortened: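 CFBE41o- cells expressing F508delCFTR with HRP in the fourth exofacial loop, induced with 0.5 μg/mL doxycycline for 72 h, then treated 18-24 h at 33° C. with compound (8 points, top 20 μM, 3-fold) plus 2 μM co-corrector. Surface HRP read by luminol luminescence; activity normalised to positive control, EC50 from variable-slope sigmoidal fit.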

T1 sequence (P13569 with tags, fused parts or gaps DEL508-508): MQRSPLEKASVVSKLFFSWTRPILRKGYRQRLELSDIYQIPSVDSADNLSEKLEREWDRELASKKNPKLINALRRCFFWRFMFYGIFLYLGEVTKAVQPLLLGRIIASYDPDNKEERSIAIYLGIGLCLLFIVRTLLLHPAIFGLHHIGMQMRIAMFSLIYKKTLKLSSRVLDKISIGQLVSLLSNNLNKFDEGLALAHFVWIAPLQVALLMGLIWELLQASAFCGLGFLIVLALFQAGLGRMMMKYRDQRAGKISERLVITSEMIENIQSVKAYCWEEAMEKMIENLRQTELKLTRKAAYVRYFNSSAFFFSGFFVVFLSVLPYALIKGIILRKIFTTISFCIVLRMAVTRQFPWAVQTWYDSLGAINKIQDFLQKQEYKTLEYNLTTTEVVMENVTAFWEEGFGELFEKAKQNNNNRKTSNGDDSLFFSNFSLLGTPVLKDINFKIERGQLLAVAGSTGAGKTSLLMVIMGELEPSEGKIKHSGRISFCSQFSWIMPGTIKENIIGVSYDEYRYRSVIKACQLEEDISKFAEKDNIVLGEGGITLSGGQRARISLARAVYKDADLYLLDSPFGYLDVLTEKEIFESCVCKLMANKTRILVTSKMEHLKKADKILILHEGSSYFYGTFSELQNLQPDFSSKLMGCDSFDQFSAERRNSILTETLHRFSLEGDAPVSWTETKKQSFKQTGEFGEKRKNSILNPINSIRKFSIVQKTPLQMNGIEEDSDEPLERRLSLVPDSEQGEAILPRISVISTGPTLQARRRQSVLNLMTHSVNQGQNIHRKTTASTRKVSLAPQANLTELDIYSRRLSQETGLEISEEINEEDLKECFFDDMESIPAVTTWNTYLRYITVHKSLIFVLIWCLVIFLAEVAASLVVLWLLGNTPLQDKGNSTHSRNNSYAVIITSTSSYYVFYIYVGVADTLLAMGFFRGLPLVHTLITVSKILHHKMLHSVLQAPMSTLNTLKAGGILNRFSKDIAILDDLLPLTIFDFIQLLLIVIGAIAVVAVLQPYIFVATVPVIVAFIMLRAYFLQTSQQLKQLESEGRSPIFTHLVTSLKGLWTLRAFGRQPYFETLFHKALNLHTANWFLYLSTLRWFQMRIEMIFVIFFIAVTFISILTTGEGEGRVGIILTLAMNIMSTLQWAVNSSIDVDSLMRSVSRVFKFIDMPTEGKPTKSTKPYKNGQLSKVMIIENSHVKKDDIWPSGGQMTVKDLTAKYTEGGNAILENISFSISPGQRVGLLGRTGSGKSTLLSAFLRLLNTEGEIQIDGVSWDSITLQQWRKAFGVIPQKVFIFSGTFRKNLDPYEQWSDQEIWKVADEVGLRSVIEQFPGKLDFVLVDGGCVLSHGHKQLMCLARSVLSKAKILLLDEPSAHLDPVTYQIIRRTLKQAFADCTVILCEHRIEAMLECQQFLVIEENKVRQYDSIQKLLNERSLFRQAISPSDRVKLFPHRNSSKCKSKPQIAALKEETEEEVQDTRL

| SMILES | Emax [1] [%] | EC50 [1] [µM] | Maximum % activity (with co-corrector) [2] | EC50 [2] [µM] |
| --- | --- | --- | --- | --- |
| COc1ccc(Br)c2c1C(C(=O)NS(=O)(=O)c1cccc3cnn(C)c13)CC2 (stereo not shown) [Example I-98, 4-bromo-7-methoxy-N-(1-methyl-1H-indazole-7-sulfonyl)-2,3-dihydro-1H-indene-1-carboxamide] | ≥ 150 | < 3 | +++ (≥350) | < 3 |
| COc1ccc(C2CCC2)c2c1C(C(=O)NS(=O)(=O)c1cccc3cnn(C)c13)CC2 (stereo not shown) [Example I-99, 4-cyclobutyl-7-methoxy-N-(1-methyl-1H-indazole-7-sulfonyl)-2,3-dihydro-1H-indene-1-carboxamide] | ≥ 150 | 3 to 10 | +++ (≥350) | < 3 |
| COc1ccc(C2CCC2)c2c1[C@@H](C(=O)NS(=O)(=O)c1cccc3ncccc13)CC2 [Example I-104, (1S)-4-cyclobutyl-7-methoxy-N-(quinoline-5-sulfonyl)-2,3-dihydro-1H-indene-1-carboxamide] | ≥ 150 | 3 to 10 | +++ (≥350) | < 3 |
| COc1ccc(Br)c2c1C(C(=O)NS(=O)(=O)c1cccc3c(O)cccc13)CC2 (stereo not shown) [Example I-105, 4-bromo-N-(5-hydroxynaphthalene-1-sulfonyl)-7-methoxy-2,3-dihydro-1H-indene-1-carboxamide] | ≥ 150 | 3 to 10 | +++ (≥350) | < 3 |
| COc1ccc(C)c2c1CC[C@H]2C(=O)NS(=O)(=O)c1cccc2ccccc12 [Example I-108, (1R)-4-methoxy-7-methyl-N-(naphthalene-1-sulfonyl)-2,3-dihydro-1H-indene-1-carboxamide] | ≥ 150 | 3 to 10 | +++ (≥350) | 3 to 10 |
| COc1ccc(C)c2c1CC[C@@H]2C(=O)NS(=O)(=O)c1cccc2ccccc12 [Example I-109, (1S)-4-methoxy-7-methyl-N-(naphthalene-1-sulfonyl)-2,3-dihydro-1H-indene-1-carboxamide] | ≥ 150 | 3 to 10 | +++ (≥350) | < 3 |
| COc1ncc(Br)c2c1C(C(=O)NS(=O)(=O)c1cccc3ccccc13)CC2 (stereo not shown) [Example I-110, 4-bromo-1-methoxy-N-(naphthalene-1-sulfonyl)-6,7-dihydro-5H-cyclopenta[c]pyridine-7-carboxamide] | ≥ 150 | 3 to 10 | +++ (≥350) | 3 to 10 |
| COc1ncc(Cl)c2c1C(C(=O)NS(=O)(=O)c1cccc3ccccc13)CC2 (stereo not shown) [Example I-112, 4-chloro-1-methoxy-N-(naphthalene-1-sulfonyl)-6,7-dihydro-5H-cyclopenta[c]pyridine-7-carboxamide] | ≥ 150 | 3 to 10 | +++ (≥350) | 3 to 10 |
| COc1ncc(Br)c2c1C(C(=O)NS(=O)(=O)c1cccc3ccccc13)CCC2 (stereo not shown) [Example I-113, 4-bromo-1-methoxy-N-(naphthalene-1-sulfonyl)-5,6,7,8-tetrahydroisoquinoline-8-carboxamide] | ≥ 150 | 3 to 10 | +++ (≥350) | < 3 |
| COc1ncc(Br)c2c1[C@H](C(=O)NS(=O)(=O)c1cccc3ccccc13)CCC2 [Example I-116, (8R)-4-bromo-1-methoxy-N-(naphthalene-1-sulfonyl)-5,6,7,8-tetrahydroisoquinoline-8-carboxamide] | ≥ 150 | < 3 | +++ (≥350) | < 3 |
| COc1ccc(C(F)(F)F)c2c1[C@@H](C(=O)NS(=O)(=O)c1cccc3nc(C)ccc13)CC2 [Example I-117, (1S)-7-methoxy-N-(2-methylquinoline-5-sulfonyl)-4-(trifluoromethyl)-2,3-dihydro-1H-indene-1-carboxamide] | ≥ 150 | 3 to 10 | +++ (≥350) | 3 to 10 |
| COc1ncc(C2CCC2)c2c1[C@@H](C(=O)NS(=O)(=O)c1cccc3ccccc13)CCC2 [Example I-121, (8S)-4-cyclobutyl-1-methoxy-N-(naphthalene-1-sulfonyl)-5,6,7,8-tetrahydroisoquinoline-8-carboxamide] | ≥ 150 | 3 to 10 | +++ (≥350) | 3 to 10 |
| COc1ccc(C2CCC2)c2c1[C@@H](C(=O)NS(=O)(=O)c1cccc3c1CCCN3)CC2 [Example I-122, (1S)-4-cyclobutyl-7-methoxy-N-(1,2,3,4-tetrahydroquinoline-5-sulfonyl)-2,3-dihydro-1H-indene-1-carboxamide] | ≥ 150 | 3 to 10 | +++ (≥350) | 3 to 10 |
| C=C(C)c1ccc(OC)c2c1CCC2C(=O)NS(=O)(=O)c1cccc2ccccc12 (stereo not shown) [Example I-124, 7-methoxy-N-(naphthalene-1-sulfonyl)-4-(prop-1-en-2-yl)-2,3-dihydro-1H-indene-1-carboxamide] | ≥ 150 | < 3 | +++ (≥350) | < 3 |

Continued, values first:

| Emax [1] [%] | EC50 [1] [µM] | Maximum % activity (with co-corrector) [2] | EC50 [2] [µM] | SMILES |
| --- | --- | --- | --- | --- |
| ≥ 150 | < 3 | +++ (≥350) | < 3 | COc1ccc(Br)c2c1C(C(=O)NS(=O)(=O)c1cccc3ncc(C)n13)CC2 (stereo not shown) [Example I-100, 4-bromo-7-methoxy-N-(3-methylimidazo[1,2-a]pyridine-5-sulfonyl)-2,3-dihydro-1H-indene-1-carboxamide] |
| ≥ 150 | < 3 | +++ (≥350) | < 3 | COc1ccc(Br)c2c1C(C(=O)NS(=O)(=O)c1cccc3nc(C)cn13)CC2 (stereo not shown) [Example I-101, 4-bromo-7-methoxy-N-(2-methylimidazo[1,2-a]pyridine-5-sulfonyl)-2,3-dihydro-1H-indene-1-carboxamide] |
| ≥ 150 | < 3 | +++ (≥350) | < 3 | COc1ccc(C2CCC2)c2c1C(C(=O)NS(=O)(=O)c1cccc3ccccc13)C2 (stereo not shown) [Example I-102, 2-cyclobutyl-5-methoxy-N-(naphthalene-1-sulfonyl)bicyclo[4.2.0]octa-1,3,5-triene-7-carboxamide] |
| ≥ 150 | 3 to 10 | +++ (≥350) | 3 to 10 | COc1ccc(C2CCC2)c2c1[C@H](C(=O)NS(=O)(=O)c1cccc3ncccc13)CC2 [Example I-103, (1R)-4-cyclobutyl-7-methoxy-N-(quinoline-5-sulfonyl)-2,3-dihydro-1H-indene-1-carboxamide] |
| ≥ 150 | 3 to 10 | +++ (≥350) | 3 to 10 | COc1ncc(C2CCC2)c2c1C(C(=O)NS(=O)(=O)c1cccc3ccccc13)CC2 (stereo not shown) [Example I-111, 4-cyclobutyl-1-methoxy-N-(naphthalene-1-sulfonyl)-6,7-dihydro-5H-cyclopenta[c]pyridine-7-carboxamide] |
| ≥ 150 | < 3 | +++ (≥350) | < 3 | COc1ccc(C2CCC2)c2c1C(C(=O)NS(=O)(=O)c1cccc3ncccc13)C2 (stereo not shown) [Example I-114, 2-cyclobutyl-5-methoxy-N-(quinoline-5-sulfonyl)bicyclo[4.2.0]octa-1,3,5-triene-7-carboxamide] |
| ≥ 150 | 3 to 10 | +++ (≥350) | < 3 | COc1ncc(Br)c2c1[C@@H](C(=O)NS(=O)(=O)c1cccc3ccccc13)CCC2 [Example I-115, (8S)-4-bromo-1-methoxy-N-(naphthalene-1-sulfonyl)-5,6,7,8-tetrahydroisoquinoline-8-carboxamide] |
| ≥ 150 | < 3 | +++ (≥350) | < 3 | COc1ccc(C(F)(F)F)c2c1[C@H](C(=O)NS(=O)(=O)c1cccc3nc(C)ccc13)CC2 [Example I-118, (1R)-7-methoxy-N-(2-methylquinoline-5-sulfonyl)-4-(trifluoromethyl)-2,3-dihydro-1H-indene-1-carboxamide] |
| ≥ 150 | 3 to 10 | +++ (≥350) | 3 to 10 | COc1ccc(C2CCC2)c2c1C(C(=O)NS(=O)(=O)c1cccc3c1NCCC3)CC2 (stereo not shown) [Example I-119, 4-cyclobutyl-7-methoxy-N-(1,2,3,4-tetrahydroquinoline-8-sulfonyl)-2,3-dihydro-1H-indene-1-carboxamide] |
| ≥ 150 | < 3 | +++ (≥350) | < 3 | COc1ncc(C2CCC2)c2c1[C@H](C(=O)NS(=O)(=O)c1cccc3ccccc13)CCC2 [Example I-120, (8R)-4-cyclobutyl-1-methoxy-N-(naphthalene-1-sulfonyl)-5,6,7,8-tetrahydroisoquinoline-8-carboxamide] |
| ≥ 150 | 3 to 10 | +++ (≥350) | < 3 | COc1ccc(C2CCC2)c2c1[C@@H](C(=O)NS(=O)(=O)c1cccc3ncn(C)c13)CC2 [Example I-123, (1S)-4-cyclobutyl-7-methoxy-N-(1-methyl-1H-benzimidazole-7-sulfonyl)-2,3-dihydro-1H-indene-1-carboxamide] |
